In patent US20100004222A1, “Amide Derivatives as Ion-Channel Ligands and Pharmaceutical Compositions and Methods of Using the Same” (Renovis, Inc., priority 2006, published 2010):

Tests used:
VR1 [1] = target: T1, VR1 (Homo sapiens, UniProt Q8NER1); test: Calcium uptake assay, low pH (proton) agonist; format: cell-based; design: expressed in transfected cells; host or cells: T-REx HEK 293 (Invitrogen), pcDNA5/TO vector; settings: HEK293; 0.3 μM compound; low pH (protons) as agonist; HEK 293 cells expressing hVR1; read-out: Low pH % Inhib. @ 0.3 μM
Target sequence in this assay (Q8NER1 whole entry): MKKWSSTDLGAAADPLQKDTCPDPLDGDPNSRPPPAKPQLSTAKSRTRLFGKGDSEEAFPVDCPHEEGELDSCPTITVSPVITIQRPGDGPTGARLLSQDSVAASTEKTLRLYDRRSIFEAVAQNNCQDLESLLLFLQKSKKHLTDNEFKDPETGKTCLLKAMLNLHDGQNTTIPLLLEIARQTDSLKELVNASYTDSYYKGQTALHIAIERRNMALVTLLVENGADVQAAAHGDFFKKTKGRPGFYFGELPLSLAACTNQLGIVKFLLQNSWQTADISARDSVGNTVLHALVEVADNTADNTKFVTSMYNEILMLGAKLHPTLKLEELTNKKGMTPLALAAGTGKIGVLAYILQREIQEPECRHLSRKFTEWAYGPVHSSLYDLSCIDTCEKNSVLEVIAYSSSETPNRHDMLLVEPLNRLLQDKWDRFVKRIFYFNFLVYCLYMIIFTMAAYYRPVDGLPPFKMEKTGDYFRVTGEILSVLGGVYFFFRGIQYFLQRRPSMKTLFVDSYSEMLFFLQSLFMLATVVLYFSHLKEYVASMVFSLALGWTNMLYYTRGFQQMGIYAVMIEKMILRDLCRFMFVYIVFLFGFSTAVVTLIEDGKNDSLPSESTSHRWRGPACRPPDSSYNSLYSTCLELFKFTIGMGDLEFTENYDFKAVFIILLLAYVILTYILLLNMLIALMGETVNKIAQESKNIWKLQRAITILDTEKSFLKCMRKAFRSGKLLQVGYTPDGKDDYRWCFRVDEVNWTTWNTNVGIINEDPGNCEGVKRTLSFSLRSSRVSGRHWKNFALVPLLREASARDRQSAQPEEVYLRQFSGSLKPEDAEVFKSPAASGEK

VR1 [2] = target: T1, VR1; test: Acid stimulation assay (FDSS 6000); format: cell-based; settings: final assay buffer pH5.8, 15 min pre-incubation
Procedure: The Acid-induced changes in the intracellular calcium concentration were monitored using FDSS 6000 (Hamamatsu Photonics, Japan), a fluorometric imaging system. The cell suspension in resting buffer (HBSS supplemented with 10 mM HEPES, pH 7.4) was pre-incubated with varying concentrations of the test compounds or resting buffer (buffer control) for 15 minutes at room temperature under dark conditions. The cells were automatically added the stimulating solution (HBSS supplemented with MES, final assay buffer pH5.8) by the FDSS 6000.
Target sequence in this assay (Q8NER1 whole entry, species assumed): as the sequence (Q8NER1 whole entry) above

[3] = Pharmacokinetic evaluation following intravenous and oral administration in rats; format: in vivo; settings: male, Sprague-Dawley, plasma, rat; for clearance: non-compartmental analysis, read-out: In vivo Clearance (converted); for bioavailability: AUCinf (PO)/AUCinf (IV), dose normalized, PO 5 mg/kg, read-out: Oral Bioavailability F (%)
Procedure: Male Sprague-Dawley rats are acclimatized for at least 24 hours prior to experiment initiation. During acclimation period, all animals receive food and water ad libitum. However, food but not water is removed from the animal's cages at least 12 hours before initiation of the experiment. During the first 3 hours of experimentation, the animals receive only water ad libitum. At least three animal each are tested for intravenous and oral dosage. For intravenous formulation, compounds were dissolved (0.25 to 1 mg/mL) in a mixture of 3% dimethyl sulfoxide, 40% PEG 400 and the rest percentage of 40% Captisol in water (w/v). For oral formulation, compounds of this invention are dissolved (2 mg/mL) in a mixture of 5% of 10% Tween 80 in water (v/v) and 95% of 0.5% methyl cellulose in water (w/v). The animals are weighed before dosing. The determined body weight is used to calculate the dose volume for each animal.
Dose volume(mL/kg)=1 mg/kg/formulation concentration(mg/mL)
In instances where the formulation concentrations were less than 0.5 mg/mL, the dosing volume is about 2 mL/kg. PO rats are typically dosed through oral gavage at 2.5 mL/kg to achieve a dose level of 5 mg/kg. For IV dosing, blood samples are collected (using a pre-heparinized syringe) via the jugular vein catheter at 2, 5, 15, 30, 60, 120, 180, 300, 480, and 1440 minutes post dosing. For PO dosing, blood samples are collected (using a pre-heparinized syringe) via the jugular vein catheter before dosing and at 5, 15, 30, 60, 120, 180, 300, 480, and 1440 minutes post dosing. About 250 uL of blood is obtained at each time point from the animal. Equal volumes of 0.9% normal saline are replaced to prevent dehydration. The whole blood samples are maintained on ice until centrifugation. Blood samples are then centrifuged at 14,000 rpm for 10 minutes at 4° C. and the upper plasma layer transferred into a clean vial and stored at −80° C. The resulting plasma samples are then analyzed by liquid chromatography-tandem mass spectrometry. Following the measurement of plasma samples and dosing solutions, plasma concentration-time curve is plotted. Plasma exposure is calculated as the area under the concentration-time curve extrapolated to time infinite (AUCinf). The AUCinf is averaged and the oral bioavailability (% F) for individual animal is calculated as:
AUCinf (PO)/AUCinf (IV), normalized to their respective dose levels. The % F is reported as the mean % F of all animals dosed orally with the compound of the invention at the specified level (Table 6).
In vivo clearance in the rat was calculated by conducting a non-compartmental analysis of the pharmacokinetic profile using WinNonlin software.

Compound: Cc1cc(/C=C/C(F)(F)F)ccc1C(=O)Nc1cccc2c1C[C@@H](O)CC2 (single isomer, unassigned) [Compound 313]
- inhibition at 0.3 µM (VR1 [1]): 106%
- IC50 (VR1 [2]): 14 nM

Compound: Cc1cc(/C=C/C(F)(F)F)ccc1C(=O)Nc1ccc2c(c1)OCCN2 [Compound 118]
- clearance [3]: 17.7 mL/min/kg

Compound: O=C(Nc1ccc2c(c1)OCCN2)c1ccc(C#CC2CC2)nc1Cl [Compound 119]
- inhibition at 0.3 µM (VR1 [1]): 0%

Compound: COc1cc(/C=C/C(F)(F)F)ccc1C(=O)Nc1ccc2c(c1)OCCN2 [Compound 122]
- clearance [3]: 61 mL/min/kg

Compound: COc1cc(/C=C/C(F)(F)F)ccc1C(=O)Nc1ccc2c(c1)OCCO2 [Compound 123]
- clearance [3]: 32 mL/min/kg

Compound: Cc1cc(C#CC2CC2)ccc1C(=O)Nc1ccc2c(c1)OCC(CO)N2 (stereo not shown) [Compound 124]
- bioavailability [3]: 67%
- clearance [3]: 20.7 mL/min/kg

Compound: Cc1cc(C#CC2CCCC2)ccc1C(=O)Nc1ccc2c(c1)OCC(CO)N2 (stereo not shown) [Compound 125]
- bioavailability [3]: 17%
- clearance [3]: 33.7 mL/min/kg

Compound: O=C(Nc1ccc2c(c1)OCC(CO)N2)c1ccc(C#CC2CCCC2)cc1F (stereo not shown) [Compound 126]
- bioavailability [3]: 35%
- clearance [3]: 44.9 mL/min/kg

Compound: O=C(Nc1ccc2c(c1)OCC(CO)N2)c1ccc(C#CC2CC2)cc1F (stereo not shown) [Compound 127]
- bioavailability [3]: 66%
- clearance [3]: 30.9 mL/min/kg

Compound: O=C(Nc1ccc2c(c1)OCC(CO)N2)c1c(F)cc(C#CC2CC2)cc1F (stereo not shown) [Compound 129]
- bioavailability [3]: 68%
- clearance [3]: 1.88 mL/min/kg

Compound: Cc1cc(/C=C/C(F)(F)F)ccc1C(=O)Nc1ccc2c(c1)OCC(CO)N2 (stereo not shown) [Compound 131]
- bioavailability [3]: > 100%
- clearance [3]: 21.6 mL/min/kg

Compound: O=C(Nc1ccc2c(c1)OCCN2)c1ccc(/C=C/C(F)(F)F)cc1F [Compound 134]
- bioavailability [3]: 63%
- clearance [3]: 85.1 mL/min/kg

Compound: CC(C)(C)C#Cc1ccc(C(=O)Nc2ccc3c(c2)OCC(CO)N3)c(F)c1 (stereo not shown) [Compound 138]
- bioavailability [3]: 36%
- clearance [3]: 38.7 mL/min/kg

Compound: O=C(Nc1ccc2c(c1)OCC(CO)N2)c1ccc(/C=C/C(F)(F)F)cc1F (stereo not shown) [Compound 144]
- bioavailability [3]: 68%
- clearance [3]: 31.5 mL/min/kg

Compound: O=C(Nc1ccc2c(c1)OCC(CO)N2)c1ccc(C#CC2CC2)cc1Cl (stereo not shown) [Compound 156]
- inhibition at 0.3 µM (VR1 [1]): 102%

Compound: O=C(Nc1ccc2c(c1)OCC(CO)N2)c1ccc(/C=C/C(F)(F)F)cc1Cl (stereo not shown) [Compound 157]
- bioavailability [3]: 83%
- clearance [3]: 15.6 mL/min/kg

Compound: CC(C)(C)C#Cc1ccc(C(=O)Nc2ccc3c(c2)OCC(CO)N3)c(Cl)c1 (stereo not shown) [Compound 158]
- bioavailability [3]: 42%
- clearance [3]: 13 mL/min/kg

Compound: CS(=O)(=O)c1cc(C#CC2CCCC2)ccc1C(=O)Nc1ccc2c(c1)OCCO2 [Compound 159]
- inhibition at 0.3 µM (VR1 [1]): 0%

Compound: O=C(Nc1cccc2cnccc12)c1ccc(/C=C/C(F)(F)F)cc1F [Compound 160]
- bioavailability [3]: 22%
- clearance [3]: 85.4 mL/min/kg

Compound: Cc1nc2cc(NC(=O)c3ccc(C#CC(C)(C)C)cc3C)ccc2s1 [Compound 162]
- bioavailability [3]: 2%
- clearance [3]: 44.3 mL/min/kg

Compound: Cc1cc(C#CC(C)(C)C)ccc1C(=O)Nc1cccc2cnccc12 [Compound 163]
- bioavailability [3]: 53%
- clearance [3]: 110 mL/min/kg

Compound: CC(C)(C)C#Cc1ccc(C(=O)Nc2cnc3ccccc3c2)c(Cl)c1 [Compound 164]
- bioavailability [3]: 1%
- clearance [3]: 33.5 mL/min/kg

Compound: CC(C)(C)C#Cc1ccc(C(=O)Nc2ccc3c(c2)OC[C@H](CO)N3)c(F)c1 [Compound 172]
- bioavailability [3]: 76%
- clearance [3]: 41.2 mL/min/kg

Compound: Cc1cc(C#CC(C)(C)C)ccc1C(=O)Nc1cnc2ccccc2c1 [Compound 181]
- bioavailability [3]: 1%
- clearance [3]: 41.8 mL/min/kg

Compound: Cc1cc(C#CC(C)(C)C)ccc1C(=O)Nc1ccc2c(c1)OC[C@@H](CO)N2 [Compound 184]
- bioavailability [3]: 17%
- clearance [3]: 35.2 mL/min/kg

Compound: Cc1nc2cc(NC(=O)c3ccc(/C=C/C(F)(F)F)cc3C)ccc2s1 [Compound 188]
- bioavailability [3]: 8%
- clearance [3]: 7.7 mL/min/kg

Compound: Cc1cc(C#CC(C)(C)C)ccc1C(=O)Nc1cccc2c(Cl)nccc12 [Compound 199]
- inhibition at 0.3 µM (VR1 [1]): 67%

Compound: Cc1cc(/C=C/C(F)(F)F)ccc1C(=O)Nc1ccc2cccnc2c1 [Compound 224]
- bioavailability [3]: > 100%
- clearance [3]: 9.97 mL/min/kg

Compound: Cc1cc(/C=C/C(F)(F)F)ccc1C(=O)Nc1ccc2cc(CO)cnc2c1 [Compound 228]
- bioavailability [3]: 39%
- clearance [3]: 37.4 mL/min/kg

Compound: Cc1cc(/C=C/C(F)(F)F)ccc1C(=O)Nc1cnc2[nH]ccc2c1 [Compound 230]
- bioavailability [3]: 17%
- clearance [3]: 15.3 mL/min/kg

Compound: Cc1cc(/C=C/C(F)(F)F)ccc1C(=O)Nc1ccc2c(CO)n[nH]c2c1 [Compound 231]
- inhibition at 0.3 µM (VR1 [1]): 0%

Compound: Cc1cc(/C=C/C(F)(F)F)ccc1C(=O)Nc1ccc2cc(C(=O)O)cnc2c1 [Compound 301]
- inhibition at 0.3 µM (VR1 [1]): 43%

Compound: Cc1cc(/C=C/C(F)(F)F)ccc1C(=O)Nc1ccc2c(c1)C(=O)CCC2 [Compound 306, (E)-2-methyl-N-(8-oxo-5,6-7,8-tetrahydronaphthylen-2-yl)-4(3,3,3-trifluoroprop-1-enyl)benzamide]
- inhibition at 0.3 µM (VR1 [1]): 51%

Compound: Cc1cc(/C=C/C(F)(F)F)ccc1C(=O)Nc1ccc2ccc(O)nc2n1 [Compound 311, (E)-N-(7-hydroxy-1,8-naphthyridin-2-yl)-2-methyl-4-(3,3,3-trifluoroprop-1-en-1)benzamide]
- inhibition at 0.3 µM (VR1 [1]): 20%

Compound: Cc1cc(/C=C/C(F)(F)F)ccc1C(=O)Nc1cnc2c(c1)CC(O)CC2 (stereo not shown) [Compound 315, (E)-N-(6-hydroxy-5,6,7,8-tetrahydroquinolol-3-yl)-2-methyl-4-(3,3,3-trifluoroprop-1-enyl)benzamide]
- inhibition at 0.3 µM (VR1 [1]): 51.3%

Compound: C/C(=C\c1ccc(C(=O)Nc2cnc3ccccc3c2)c(C)c1)C(F)(F)F [Compound 316]
- inhibition at 0.3 µM (VR1 [1]): 52%

Compound: Cc1cc(/C=C/C(F)(F)F)ccc1C(=O)Nc1cnc2cc(C(C)O)cnc2c1 (stereo not shown) [Compound 320, (E)-N-(7-(1-hydroxyethyl)-1,5-naphthyridin-3-yl)-2-methyl-4-(3,33-trifluoroprop-1-enyl)benzamide]
- inhibition at 0.3 µM (VR1 [1]): 47%

Compound: Cc1cc(/C=C/C(F)(F)F)ccc1C(=O)Nc1cnc2ncccc2c1 [Compound 321, (E)-2-methyl-N-(1,8-naphthyridin-3-yl)-4-(3,3,3-trifluoroprop-1-enyl)benzamide]
- inhibition at 0.3 µM (VR1 [1]): 41.5%

Compound: CC(=O)N1CCCc2ccc(NC(=O)c3ccc(/C=C/C(F)(F)F)cc3C)cc21 [Compound 322, (E)-N-(1-acetyl-1,2,3,4-tetrahydroquinolin-7-yl)-2-methyl-4-(3,3,3-trifluoroprop-1-enyl)benzamide]
- inhibition at 0.3 µM (VR1 [1]): 42.7%

Compound: CC(=O)c1cnc2cc(NC(=O)c3ccc(/C=C/C(F)(F)F)cc3C)cnc2c1 [Compound 324]
- inhibition at 0.3 µM (VR1 [1]): 0.74%

Compound: Cc1cc(/C=C/C(F)(F)F)ccc1C(=O)Nc1cnc2cc(C(C)(C)O)cnc2c1 [Compound 326, (E)-N-(7-(2-hydroxypropan-2-yl)-1,5-naphthyridin-3-yl)-2-methyl-4-(3,3,3-trifluoroprop-1-enyl)benzamide]
- inhibition at 0.3 µM (VR1 [1]): 6.76%

Compound: Cc1cc(/C=C/C(F)(F)F)ccc1C(=O)Nc1ccc2c(c1)N(C(=O)C1CC1)CC2 [Compound 402, (E)-N-(1-cyclopropanecarbonyl-2,3-dihydro-1H-indol-6-yl)-2-methyl-4-(3,3,3-trifluoro-prop-1-enyl)benzamide]
- inhibition at 0.3 µM (VR1 [1]): 0%

Compound: Cc1cc(/C=C/C(F)(F)F)ccc1C(=O)Nc1ccc2c(c1)C(=O)N(CCO)C2=O [Compound 404, (E)-N-(2-(2-hydroxyethyl)-1,3-dioxoisoindolin-5-yl)-2-methyl-(3,3,3-trifluoroprop-1-enyl)benzamide]
- inhibition at 0.3 µM (VR1 [1]): 10%

Compound: Cc1cc(/C=C/C(F)(F)F)ccc1C(=O)Nc1ccc2c(c1)N(C(=O)C(C)(C)C)CC2 [Compound 405, (E)-N-[1-(2,2-dimethyl-propionyl)-2,3-dihydro-1H-indol-6-yl]-2-methyl-4-(3,3,3-trifluoro-prop-1-enyl)benzamide]
- inhibition at 0.3 µM (VR1 [1]): 14%
